# Experimental data as given in ChEMBL document CHEMBL1201862, “PubChem BioAssay data set” (2004).
# Activity calls are given as the source filed them.
# Legend:
# [1] = biological target: T1, Mannose-6-phosphate isomerase (Homo sapiens, UniProt P34949); assay: phosphomannose isomerase inhibition – biochemical, fluorescence intensity, confirmation (AID 1535)
# T1 sequence (P34949 whole entry): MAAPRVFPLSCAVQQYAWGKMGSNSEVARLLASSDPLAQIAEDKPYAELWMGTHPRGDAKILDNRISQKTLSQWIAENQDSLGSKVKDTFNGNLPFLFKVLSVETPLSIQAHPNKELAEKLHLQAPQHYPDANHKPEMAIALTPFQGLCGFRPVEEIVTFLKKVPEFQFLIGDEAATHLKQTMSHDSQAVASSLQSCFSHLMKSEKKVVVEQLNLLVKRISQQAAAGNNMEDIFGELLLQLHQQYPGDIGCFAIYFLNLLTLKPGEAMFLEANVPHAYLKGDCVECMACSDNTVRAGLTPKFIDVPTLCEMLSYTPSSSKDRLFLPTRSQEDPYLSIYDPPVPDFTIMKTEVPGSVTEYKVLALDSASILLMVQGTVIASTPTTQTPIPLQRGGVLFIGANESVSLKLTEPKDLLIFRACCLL
# Phosphomannomutase 2 = Phosphomannomutase 2 (Homo sapiens, UniProt O15305); assay: Counter screen SAR assay for PMM2 inhibitors via a fluorescence intensity assay. [Related pubchem assays (depositor defined):AID1545, AID1574]
# Cannabinoid receptor 1 [2] = biological target: T2, Cannabinoid receptor 1 (Homo sapiens, UniProt P21554); assay: SAR analysis of antagonists of the Cannabinoid Receptor 1 using an Image-Based Assay - Set 3. [Related pubchem assays (depositor defined):AID1961, AID1965]; type: functional
# Cannabinoid receptor 2 [3] = biological target: T3, Cannabinoid receptor 2 (Homo sapiens, UniProt P34972); assay: SAR analysis of antagonists of the Cannabinoid Receptor 2 using an Image-Based Assay - Set 2. [Related pubchem assays (depositor defined):AID1961, AID1965]; type: functional
# Cannabinoid receptor 2 [4] = biological target: T3, Cannabinoid receptor 2; assay: SAR analysis of agonists of the Cannabinoid Receptor 2 using an Image-Based Assay - Set 2. [Related pubchem assays (depositor defined):AID1961, AID1965]; type: functional
# [5] = biological target: T4, G-protein coupled receptor 35 (Homo sapiens, UniProt Q9HC97); assay: SAR analysis of Antagonists of the GPR35 Receptor using an Image-Based Assay - Set 4. [Related pubchem assays (depositor defined):[…]]; type: functional
# [6] = biological target: T4, G-protein coupled receptor 35; assay: SAR analysis of Agonists of the GPR35 Receptor using an Image-Based Assay - Set 3. [Related pubchem assays (depositor defined):AID1961, AID1965]; type: functional
# [7] = biological target: T5, G-protein coupled receptor 55 (Homo sapiens, UniProt Q9Y2T6); assay: SAR analysis of selective Agonists of GPR55 using an Image-Based Assay - Set 2. [Related pubchem assays (depositor defined):AID1961, AID1965]; type: functional
# Cannabinoid receptor 1 [8] = biological target: T2, Cannabinoid receptor 1; assay: SAR analysis of agonists of the Cannabinoid Receptor 1 using an Image-Based Assay - Set 3. [Related pubchem assays (depositor defined):AID1961, AID1965]; type: functional
# [9] = biological target: DNA damage-inducible transcript 3 protein (Mus musculus, UniProt P35639); type: functional, Cricetulus griseus
# Hexokinase = Hexokinase (Trypanosoma brucei, UniProt Q38C41); assay: Confirmation assay for inhibitors of Trypanosoma brucei hexokinase 1-Analogue-first series. [Related pubchem assays (depositor defined):AID1430, AID1632, AID2516, AID2560, AID2579, AID2600, AID449725, AID492951]; type: functional
# Beta-galactosidase = Beta-galactosidase (Escherichia coli, UniProt Q8VNN2); assay: detection-enzyme interference by beta-gal modulators – biochemical, E. coli enzyme, set 3, artefact control for CCR6 antagonist project, dose response (AID 504712); type: functional
# Saccharomyces cerevisiae = assay: S. cerevisiae Caspase-1/ASC signal blockers IC50, NALP1 inhibitor project selectivity test (AID 488863); type: functional, organism-based
# [10] = biological target: NACHT, LRR and PYD domains-containing protein 1 (Homo sapiens, UniProt Q9C000); assay: NALP1 inhibitors in yeast, dose response, luminescent (AID 488860); type: functional
# [11] = biological target: Heat shock protein HSP 90-alpha (Homo sapiens, UniProt P07900); type: functional, organism-based
# [12] = Luminescence Cell-Based Dose Retest to Confirm Inhibitors of Cancer Stem Cells. [Related pubchem assays (depositor defined):AID2717, AID2721]; type: functional; details: Homo sapiens
# [13] = biological target: T5, G-protein coupled receptor 55; assay: selective activators of receptor GPR55 – imaging, U2OS cells, beta-arrestin-GFP redistribution, primary screen (AID 1961); type: functional
# [14] = biological target: Sphingosine 1-phosphate receptor 1 (Homo sapiens, UniProt P21453); assay: Fluorescence-based counterscreen assay for S1P4 agonists: Cell-based dose response high throughput screening assay to identify agonists of the Sphingosine 1-Phosphate Receptor 1 (S1P1). [Related pubchem assays (depositor defined):AID1509, AID1523, AID1801, AID463107, AID463118, AID463119, AID463122, AID463123, AID463129, AID463225, AID504400, AID504460]; type: functional
# [15] = biological target: T6, Sphingosine 1-phosphate receptor 4 (Homo sapiens, UniProt O95977); assay: Fluorescence dose response cell-based high throughput screening assay for agonists of the Sphingosine 1-Phosphate Receptor 4 (S1P4). [Related pubchem assays: 1509 (Primary screen.), 1523 (Confirmation screen in triplicates.)]; type: functional
# T6 sequence (O95977 whole entry): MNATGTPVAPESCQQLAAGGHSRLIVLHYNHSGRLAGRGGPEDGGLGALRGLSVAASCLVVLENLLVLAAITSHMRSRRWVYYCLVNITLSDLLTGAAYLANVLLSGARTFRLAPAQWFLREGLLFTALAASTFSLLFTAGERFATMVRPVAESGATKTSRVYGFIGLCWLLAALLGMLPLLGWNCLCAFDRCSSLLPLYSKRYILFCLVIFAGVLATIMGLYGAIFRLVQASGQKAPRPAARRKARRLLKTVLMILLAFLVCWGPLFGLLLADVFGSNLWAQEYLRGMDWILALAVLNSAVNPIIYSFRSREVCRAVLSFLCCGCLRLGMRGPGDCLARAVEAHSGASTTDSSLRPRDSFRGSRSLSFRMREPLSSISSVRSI
# [16] = biological target: Voltage-dependent T-type calcium channel subunit alpha-1H (Homo sapiens, UniProt O95180); assay: human CACNA1H calcium influx blockade – cell-based, synthetic library set 1, calcium flux (AID 493022); type: functional
# Coagulation factor XII = Coagulation factor XII (Homo sapiens, UniProt P00748); type: functional;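 note: activated factor XIIa alpha cleaving a fluorogenic AMC peptide substrate; inhibitor potency from loss of enzyme activity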
# [17] = biological target: T7, Type-1 angiotensin II receptor (Homo sapiens, UniProt P30556); assay: agonist activity at AGTR1 – cell-based, uHTS hits, selectivity assay for APJ receptor agonist project, dose response (AID 488865); type: functional;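 note: beta-arrestin recruitment to AT1 measured by enzyme fragment complementation luminescence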
# T7 sequence (P30556 whole entry): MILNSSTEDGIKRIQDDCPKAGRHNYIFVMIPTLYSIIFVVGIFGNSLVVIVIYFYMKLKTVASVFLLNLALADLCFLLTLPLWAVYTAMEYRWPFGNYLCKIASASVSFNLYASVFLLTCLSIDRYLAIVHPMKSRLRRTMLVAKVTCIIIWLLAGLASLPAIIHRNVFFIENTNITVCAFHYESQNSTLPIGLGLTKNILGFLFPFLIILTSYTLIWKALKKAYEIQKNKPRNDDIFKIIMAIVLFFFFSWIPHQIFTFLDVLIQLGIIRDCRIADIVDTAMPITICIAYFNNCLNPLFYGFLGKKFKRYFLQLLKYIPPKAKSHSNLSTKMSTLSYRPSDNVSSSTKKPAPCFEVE
# Protein RecA = biological target: T8, Protein RecA (Mycobacterium tuberculosis, UniProt P9WHJ3); assay: Fluorescence Cell-Free Homogeneous Dose Retest to Identify Inhibitors of RecA-Intein Splicing Activity. [Related pubchem assays (depositor defined):AID2097, AID2223, AID489010, AID492950]; type: functional
# T8 sequence (P9WHJ3 whole entry): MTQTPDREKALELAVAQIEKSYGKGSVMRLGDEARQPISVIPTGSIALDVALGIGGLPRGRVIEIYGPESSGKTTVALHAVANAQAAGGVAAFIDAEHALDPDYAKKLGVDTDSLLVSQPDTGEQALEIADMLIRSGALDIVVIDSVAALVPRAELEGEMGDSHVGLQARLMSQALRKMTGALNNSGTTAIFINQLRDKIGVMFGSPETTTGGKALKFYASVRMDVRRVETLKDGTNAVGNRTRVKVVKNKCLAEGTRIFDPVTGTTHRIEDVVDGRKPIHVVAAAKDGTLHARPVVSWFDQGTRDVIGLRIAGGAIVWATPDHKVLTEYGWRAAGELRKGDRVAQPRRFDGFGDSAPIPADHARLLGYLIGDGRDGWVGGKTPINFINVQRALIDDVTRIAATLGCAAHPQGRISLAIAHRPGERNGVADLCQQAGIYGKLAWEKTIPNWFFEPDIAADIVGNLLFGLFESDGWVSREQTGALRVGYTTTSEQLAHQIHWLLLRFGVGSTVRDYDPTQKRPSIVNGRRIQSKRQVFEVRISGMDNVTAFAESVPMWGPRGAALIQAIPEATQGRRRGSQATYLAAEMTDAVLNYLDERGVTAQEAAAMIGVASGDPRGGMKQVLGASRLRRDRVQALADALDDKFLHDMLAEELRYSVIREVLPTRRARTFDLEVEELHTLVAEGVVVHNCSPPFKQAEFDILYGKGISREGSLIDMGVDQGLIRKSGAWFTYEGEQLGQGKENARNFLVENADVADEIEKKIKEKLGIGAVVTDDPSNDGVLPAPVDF
# [18] = biological target: T9, Replicative DNA helicase DnaB (Mycobacterium tuberculosis, UniProt P9WMR3); assay: DnaB intein splicing inhibitors, dose response, biochemical, cell-free fluorescence (AID 449749); type: functional
# T9 sequence (P9WMR3 whole entry): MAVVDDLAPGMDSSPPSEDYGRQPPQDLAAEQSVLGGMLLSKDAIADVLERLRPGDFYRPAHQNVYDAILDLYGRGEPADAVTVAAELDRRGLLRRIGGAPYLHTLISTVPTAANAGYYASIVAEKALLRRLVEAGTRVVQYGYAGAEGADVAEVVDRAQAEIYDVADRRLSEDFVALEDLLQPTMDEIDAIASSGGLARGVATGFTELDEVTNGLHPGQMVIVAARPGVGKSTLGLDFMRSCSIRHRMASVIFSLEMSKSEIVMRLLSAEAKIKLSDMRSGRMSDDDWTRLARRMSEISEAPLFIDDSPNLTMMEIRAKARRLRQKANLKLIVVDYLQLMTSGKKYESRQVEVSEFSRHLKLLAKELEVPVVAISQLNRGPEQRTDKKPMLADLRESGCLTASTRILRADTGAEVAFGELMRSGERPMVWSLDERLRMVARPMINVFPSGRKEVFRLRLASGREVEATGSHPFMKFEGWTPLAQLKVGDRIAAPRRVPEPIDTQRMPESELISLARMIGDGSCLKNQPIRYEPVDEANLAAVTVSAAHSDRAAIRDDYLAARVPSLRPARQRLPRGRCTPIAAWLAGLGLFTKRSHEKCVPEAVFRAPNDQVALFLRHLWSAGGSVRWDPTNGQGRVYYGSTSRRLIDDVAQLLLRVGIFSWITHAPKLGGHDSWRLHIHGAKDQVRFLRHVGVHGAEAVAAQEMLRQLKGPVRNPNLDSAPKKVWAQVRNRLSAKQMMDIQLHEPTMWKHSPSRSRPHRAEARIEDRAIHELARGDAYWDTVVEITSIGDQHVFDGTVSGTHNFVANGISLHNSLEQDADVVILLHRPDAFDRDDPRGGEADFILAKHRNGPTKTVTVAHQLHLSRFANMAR
# Melanocortin receptor 4 = Melanocortin receptor 4 (Homo sapiens, UniProt P32245); type: functional, cell-based;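 note: Cell-based assay with luminescence read-out, confirmatory dose-response testing for agonist activity of biased ligands at MC4R; human U2OS cells with tagged receptor and beta-arrestin; potency of agonists that increase receptor coupling to beta-arrestin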
# [19] = Intein inhibitors as potential Tuberculosis drugs, a cytotoxicity screen. [Related pubchem assays (depositor defined):AID2221, AID2223, AID434968, AID435010, AID449749, AID449750, AID489010]; type: functional
# 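Throughout, for CC50: cells exposed to compound for 72 hours before luminescence readout.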
# T3 sequence (P34972 whole entry): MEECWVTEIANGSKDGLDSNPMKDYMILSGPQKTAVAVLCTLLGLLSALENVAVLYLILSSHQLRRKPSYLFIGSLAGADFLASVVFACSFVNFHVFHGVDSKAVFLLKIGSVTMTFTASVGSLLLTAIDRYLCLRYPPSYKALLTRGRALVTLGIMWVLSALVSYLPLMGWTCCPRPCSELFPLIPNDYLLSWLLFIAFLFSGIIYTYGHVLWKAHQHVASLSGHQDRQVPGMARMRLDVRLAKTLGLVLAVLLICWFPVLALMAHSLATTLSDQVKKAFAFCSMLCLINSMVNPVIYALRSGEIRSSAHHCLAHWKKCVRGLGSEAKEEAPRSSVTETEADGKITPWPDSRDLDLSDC
# T4 sequence (Q9HC97 whole entry): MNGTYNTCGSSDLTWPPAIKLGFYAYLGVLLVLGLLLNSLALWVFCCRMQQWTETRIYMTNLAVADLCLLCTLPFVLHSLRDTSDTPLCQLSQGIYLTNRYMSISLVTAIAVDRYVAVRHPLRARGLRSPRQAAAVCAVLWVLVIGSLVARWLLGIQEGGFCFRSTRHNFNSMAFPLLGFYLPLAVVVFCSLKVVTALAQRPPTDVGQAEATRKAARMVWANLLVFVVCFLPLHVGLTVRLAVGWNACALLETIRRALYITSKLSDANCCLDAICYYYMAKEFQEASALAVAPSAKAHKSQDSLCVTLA
# T2 sequence (P21554 whole entry): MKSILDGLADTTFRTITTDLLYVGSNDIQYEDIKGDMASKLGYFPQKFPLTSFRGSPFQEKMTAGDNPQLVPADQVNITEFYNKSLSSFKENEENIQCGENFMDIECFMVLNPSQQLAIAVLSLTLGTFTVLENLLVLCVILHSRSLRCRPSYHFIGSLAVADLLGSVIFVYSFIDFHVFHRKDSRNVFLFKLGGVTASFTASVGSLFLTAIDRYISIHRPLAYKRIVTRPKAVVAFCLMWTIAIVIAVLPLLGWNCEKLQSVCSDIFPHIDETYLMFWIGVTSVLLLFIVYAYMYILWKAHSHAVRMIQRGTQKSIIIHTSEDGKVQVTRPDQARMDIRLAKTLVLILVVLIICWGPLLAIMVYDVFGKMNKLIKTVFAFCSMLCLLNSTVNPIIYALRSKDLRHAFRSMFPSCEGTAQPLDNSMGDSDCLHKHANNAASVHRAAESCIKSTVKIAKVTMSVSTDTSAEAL
# T5 sequence (Q9Y2T6 whole entry): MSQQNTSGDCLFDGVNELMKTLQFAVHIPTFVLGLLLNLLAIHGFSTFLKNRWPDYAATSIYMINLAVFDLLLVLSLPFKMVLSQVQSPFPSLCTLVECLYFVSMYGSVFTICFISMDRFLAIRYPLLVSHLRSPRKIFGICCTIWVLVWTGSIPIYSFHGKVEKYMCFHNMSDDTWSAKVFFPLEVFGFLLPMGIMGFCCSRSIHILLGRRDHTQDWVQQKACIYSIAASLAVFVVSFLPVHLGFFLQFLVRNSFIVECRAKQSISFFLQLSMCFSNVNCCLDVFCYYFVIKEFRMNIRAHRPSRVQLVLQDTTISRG
# Sequence of Coagulation factor XII (P00748 20-372 limits assumed): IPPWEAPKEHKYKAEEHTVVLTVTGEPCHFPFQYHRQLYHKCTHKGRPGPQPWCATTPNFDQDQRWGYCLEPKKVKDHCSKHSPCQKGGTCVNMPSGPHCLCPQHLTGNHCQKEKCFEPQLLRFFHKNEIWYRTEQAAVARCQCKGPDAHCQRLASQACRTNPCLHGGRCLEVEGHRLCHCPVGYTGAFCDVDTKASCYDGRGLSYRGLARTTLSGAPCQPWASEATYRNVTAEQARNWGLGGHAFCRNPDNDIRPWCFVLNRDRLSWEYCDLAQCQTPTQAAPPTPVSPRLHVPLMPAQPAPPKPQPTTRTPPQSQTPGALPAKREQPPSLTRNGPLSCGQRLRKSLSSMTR
# Sequence of Coagulation factor XII (P00748 373-615 limits assumed): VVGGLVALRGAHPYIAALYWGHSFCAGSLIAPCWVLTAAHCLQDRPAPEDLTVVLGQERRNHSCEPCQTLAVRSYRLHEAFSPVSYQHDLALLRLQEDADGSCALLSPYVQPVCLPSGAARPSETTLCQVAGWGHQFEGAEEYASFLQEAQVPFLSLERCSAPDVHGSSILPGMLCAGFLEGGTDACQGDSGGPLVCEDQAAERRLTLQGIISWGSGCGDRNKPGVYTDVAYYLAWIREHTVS
# Sequence of Phosphomannomutase 2 (O15305 whole entry): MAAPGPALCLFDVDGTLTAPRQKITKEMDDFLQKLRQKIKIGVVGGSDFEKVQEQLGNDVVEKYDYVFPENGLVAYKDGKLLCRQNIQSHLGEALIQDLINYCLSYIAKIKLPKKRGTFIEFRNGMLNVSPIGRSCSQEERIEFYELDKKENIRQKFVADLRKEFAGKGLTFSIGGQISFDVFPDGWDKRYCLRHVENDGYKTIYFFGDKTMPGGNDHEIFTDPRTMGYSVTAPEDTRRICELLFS
# Sequence of Voltage-dependent T-type calcium channel subunit alpha-1H (O95180 whole entry): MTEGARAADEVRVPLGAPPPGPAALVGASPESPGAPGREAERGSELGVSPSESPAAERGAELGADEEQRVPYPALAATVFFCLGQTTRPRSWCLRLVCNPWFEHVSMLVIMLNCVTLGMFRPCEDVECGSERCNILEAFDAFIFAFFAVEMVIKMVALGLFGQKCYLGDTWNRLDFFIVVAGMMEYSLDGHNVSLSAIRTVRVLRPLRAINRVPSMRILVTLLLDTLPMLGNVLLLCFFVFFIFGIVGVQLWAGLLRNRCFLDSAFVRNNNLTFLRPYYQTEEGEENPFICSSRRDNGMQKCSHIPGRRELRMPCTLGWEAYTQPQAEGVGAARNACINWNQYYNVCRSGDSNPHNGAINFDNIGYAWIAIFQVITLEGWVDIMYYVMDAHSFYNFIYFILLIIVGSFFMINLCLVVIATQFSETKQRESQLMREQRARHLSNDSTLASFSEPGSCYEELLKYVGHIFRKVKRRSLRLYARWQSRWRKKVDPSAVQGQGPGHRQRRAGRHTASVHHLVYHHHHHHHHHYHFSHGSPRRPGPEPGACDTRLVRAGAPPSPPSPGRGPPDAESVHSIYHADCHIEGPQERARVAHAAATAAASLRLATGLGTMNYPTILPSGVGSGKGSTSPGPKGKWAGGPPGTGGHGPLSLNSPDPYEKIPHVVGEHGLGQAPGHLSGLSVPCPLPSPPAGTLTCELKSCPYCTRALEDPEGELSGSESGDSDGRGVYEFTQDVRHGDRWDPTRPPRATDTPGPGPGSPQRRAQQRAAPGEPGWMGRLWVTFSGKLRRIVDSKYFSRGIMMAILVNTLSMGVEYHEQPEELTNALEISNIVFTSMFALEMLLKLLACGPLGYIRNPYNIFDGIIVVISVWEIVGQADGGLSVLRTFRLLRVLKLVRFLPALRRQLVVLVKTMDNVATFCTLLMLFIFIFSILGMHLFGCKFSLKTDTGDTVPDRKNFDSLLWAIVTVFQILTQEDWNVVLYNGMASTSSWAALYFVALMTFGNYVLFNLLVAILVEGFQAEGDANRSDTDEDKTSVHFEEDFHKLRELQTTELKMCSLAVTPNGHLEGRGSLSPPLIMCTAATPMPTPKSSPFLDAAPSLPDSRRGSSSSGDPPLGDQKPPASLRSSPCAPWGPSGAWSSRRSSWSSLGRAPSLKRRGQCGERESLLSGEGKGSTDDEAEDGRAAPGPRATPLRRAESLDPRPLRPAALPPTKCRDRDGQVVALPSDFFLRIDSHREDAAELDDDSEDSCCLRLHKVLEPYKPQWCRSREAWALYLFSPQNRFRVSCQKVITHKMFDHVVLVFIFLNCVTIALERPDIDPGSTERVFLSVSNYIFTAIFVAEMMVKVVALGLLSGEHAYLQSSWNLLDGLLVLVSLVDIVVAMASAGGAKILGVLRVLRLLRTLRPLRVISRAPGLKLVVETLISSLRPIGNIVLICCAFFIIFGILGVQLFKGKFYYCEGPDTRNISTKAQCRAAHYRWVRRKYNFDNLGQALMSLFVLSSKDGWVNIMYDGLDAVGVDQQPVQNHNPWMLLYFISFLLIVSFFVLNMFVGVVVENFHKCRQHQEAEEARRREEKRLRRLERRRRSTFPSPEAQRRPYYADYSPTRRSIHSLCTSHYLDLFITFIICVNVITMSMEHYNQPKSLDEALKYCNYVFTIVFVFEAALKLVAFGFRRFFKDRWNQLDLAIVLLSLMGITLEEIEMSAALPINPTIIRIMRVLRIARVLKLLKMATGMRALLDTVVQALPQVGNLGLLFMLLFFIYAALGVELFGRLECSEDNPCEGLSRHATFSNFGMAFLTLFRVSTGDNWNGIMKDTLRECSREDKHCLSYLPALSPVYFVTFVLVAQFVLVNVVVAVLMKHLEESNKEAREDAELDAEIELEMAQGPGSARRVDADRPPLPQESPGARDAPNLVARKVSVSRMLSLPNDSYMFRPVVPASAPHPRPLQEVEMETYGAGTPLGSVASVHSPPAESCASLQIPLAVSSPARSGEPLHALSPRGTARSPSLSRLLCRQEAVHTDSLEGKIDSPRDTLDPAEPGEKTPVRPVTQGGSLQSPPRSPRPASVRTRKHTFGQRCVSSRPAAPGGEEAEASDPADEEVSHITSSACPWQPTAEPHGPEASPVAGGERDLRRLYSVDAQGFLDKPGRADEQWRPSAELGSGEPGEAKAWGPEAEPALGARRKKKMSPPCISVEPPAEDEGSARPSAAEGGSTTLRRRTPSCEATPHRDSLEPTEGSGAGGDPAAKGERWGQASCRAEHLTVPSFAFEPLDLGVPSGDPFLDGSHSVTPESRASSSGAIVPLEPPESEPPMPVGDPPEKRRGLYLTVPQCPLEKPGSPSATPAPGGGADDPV
# Sequence of Melanocortin receptor 4 (P32245 whole entry): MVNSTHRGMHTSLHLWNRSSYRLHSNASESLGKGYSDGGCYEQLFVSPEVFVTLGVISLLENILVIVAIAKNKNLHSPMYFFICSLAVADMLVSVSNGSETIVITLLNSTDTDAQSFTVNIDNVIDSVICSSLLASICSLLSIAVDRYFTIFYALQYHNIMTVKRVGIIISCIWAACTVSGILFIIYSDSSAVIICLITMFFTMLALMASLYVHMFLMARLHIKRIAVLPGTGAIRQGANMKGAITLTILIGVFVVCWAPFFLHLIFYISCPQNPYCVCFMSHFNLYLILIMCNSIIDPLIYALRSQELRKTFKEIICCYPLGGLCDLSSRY
structure (smiles),measurement,setting,value
COc1ccc(C/N=c2\ssnc2Cl)cc1,IC50,[1],15.5 µM (active)
same,IC50,Phosphomannomutase 2,> 100 µM (inactive)
COc1ccc(S(=O)(=O)N2CCOCC2)cc1NC(=O)c1cc2c(s1)CCCCC2,IC50,Cannabinoid receptor 1 [2],20.6 µM (inactive)
same,IC50,Cannabinoid receptor 2 [3],> 32 µM (inactive)
same,EC50,Cannabinoid receptor 2 [4],> 32 µM (inactive)
same,IC50,[5],> 32 µM (inactive)
same,EC50,[6],> 32 µM (inactive)
same,EC50,[7],> 32 µM (inactive)
same,EC50,Cannabinoid receptor 1 [8],> 32 µM (inactive)
CC(C)(C)C1C/C(=C/c2ccco2)C(=O)/C(=C/c2ccco2)C1 (stereo unspecified),Absolute IC50 (CHOP),[9],< 10 µM
O=c1c2cc(N3CCOCC3)ccc2sn1-c1ccccc1,IC50,Hexokinase,4.46 µM (active)
Cc1cc(N2C(=O)C=CC2=O)c([N+](=O)[O-])cc1C,IC50,Beta-galactosidase,> 66.6 µM (inactive)
same,IC50,Saccharomyces cerevisiae,23.9 µM (active)
same,IC50,[10],17.7 µM (active)
same,AC50,[11],1.07 µM (active)
same,AC50,[12],4.18 µM (active)
CCCc1ccc2oc(C(=O)N(Cc3ccncc3)CC3CCCO3)c(C)c2c1 (stereo unspecified),EC50,[13],11.2 µM (inactive)
CCN(c1ccccc1)S(=O)(=O)c1cc([N+](=O)[O-])ccc1N,EC50,[14],> 49.8 µM (inactive)
same,EC50,[15],9.34 µM (active)
Cc1ccc(-c2nnc(NC(=O)COc3ccc(F)cc3Cl)o2)cc1C,EC50,[16],1.1 µM (active)
Cc1cc(=O)oc2cc(OC(=O)CCN3C(=O)c4ccccc4C3=O)ccc12,IC50,Coagulation factor XII,> 50 µM (inactive)
CCOc1cc2[nH]c(=S)n(CCN3CCC(C)CC3)c(=O)c2cc1OCC,EC50,[17],> 100 µM (inactive)
Cc1ccc(Sc2ccc(NC(=O)CCl)cc2)cc1C,EC50,Protein RecA,0.716 µM (active)
same,AC50,[18],2.51 µM (active)
same,EC50,Melanocortin receptor 4,> 89.2 µM (inactive)
same,CC50,[19],7.87 µM (active)
